Source: PubChem BioAssay (NCI)
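How tested: cells in 96-well plates exposed to compound for 48 hours at five concentrations. Definition used: TGI = concentration required for complete inhibition of growth.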

Tests used:
Assay in all cases: DTP human tumour cell line panel, 48 h
786-0 renal = system: 786-0 renal
A498 renal = system: A498 renal
A549 NSCLC = system: A549 NSCLC
ACHN renal = system: ACHN renal
BT-549 breast = system: BT-549 breast
CAKI-1 renal = system: CAKI-1 renal
CCRF-CEM leukemia = system: CCRF-CEM leukemia
COLO 205 colon = system: COLO 205 colon
DU-145 prostate = system: DU-145 prostate
EKVX NSCLC = system: EKVX NSCLC
HCC-2998 colon = system: HCC-2998 colon
HCT-116 colon = system: HCT-116 colon
HCT-15 colon = system: HCT-15 colon
HL-60(TB) leukemia = system: HL-60(TB) leukemia
HOP-62 NSCLC = system: HOP-62 NSCLC
HOP-92 NSCLC = system: HOP-92 NSCLC
HS 578T breast = system: HS 578T breast
HT29 colon = system: HT29 colon
IGROV1 ovarian = system: IGROV1 ovarian
K-562 leukemia = system: K-562 leukemia
KM12 colon = system: KM12 colon
LOX IMVI melanoma = system: LOX IMVI melanoma
M14 melanoma = system: M14 melanoma
MALME-3M melanoma = system: MALME-3M melanoma
MCF7 breast = system: MCF7 breast
MDA-MB-231 breast = system: MDA-MB-231 breast
MDA-MB-435 = system: MDA-MB-435
MDA-N = system: MDA-N
MOLT-4 leukemia = system: MOLT-4 leukemia
NCI-H226 lung = system: NCI-H226 lung
NCI-H23 lung = system: NCI-H23 lung
NCI-H460 lung = system: NCI-H460 lung
NCI-H522 lung = system: NCI-H522 lung
NCI/ADR-RES ovarian = system: NCI/ADR-RES ovarian
OVCAR-3 ovarian = system: OVCAR-3 ovarian
OVCAR-4 ovarian = system: OVCAR-4 ovarian
OVCAR-5 ovarian = system: OVCAR-5 ovarian
OVCAR-8 ovarian = system: OVCAR-8 ovarian
PC-3 prostate = system: PC-3 prostate
RPMI-8226 leukemia = system: RPMI-8226 leukemia
RXF 393 renal = system: RXF 393 renal
SF-268 CNS = system: SF-268 CNS
SF-295 CNS = system: SF-295 CNS
SF-539 CNS = system: SF-539 CNS
SK-MEL-2 melanoma = system: SK-MEL-2 melanoma
SK-MEL-28 melanoma = system: SK-MEL-28 melanoma
SK-MEL-5 melanoma = system: SK-MEL-5 melanoma
SK-OV-3 ovarian = system: SK-OV-3 ovarian
SN12C renal = system: SN12C renal
SNB-19 CNS = system: SNB-19 CNS
SNB-75 CNS = system: SNB-75 CNS
SR leukemia = system: SR leukemia
SW-620 colon = system: SW-620 colon
T-47D breast = system: T-47D breast
TK-10 renal = system: TK-10 renal
U251 CNS = system: U251 CNS
UACC-257 melanoma = system: UACC-257 melanoma
UACC-62 melanoma = system: UACC-62 melanoma
UO-31 renal = system: UO-31 renal

COc1cc2cc3c4c(cc(OC)c(OC)c4c2cc1OC)CCN3C
TGI (786-0 renal): > 50 µM | TGI (A498 renal): > 38.1 µM | TGI (A549 NSCLC): > 50 µM | TGI (ACHN renal): 31.7 µM | TGI (BT-549 breast): > 23.6 µM | TGI (CAKI-1 renal): 25.7 µM | TGI (CCRF-CEM leukemia): 7.27 µM | TGI (COLO 205 colon): 39.6 µM | TGI (DU-145 prostate): 19.8 µM | TGI (EKVX NSCLC): > 50 µM | TGI (HCC-2998 colon): 33.1 µM | TGI (HCT-116 colon): > 25.7 µM | TGI (HCT-15 colon): > 47.8 µM | TGI (HL-60(TB) leukemia): 18.7 µM | TGI (HOP-62 NSCLC): > 50 µM | TGI (HOP-92 NSCLC): > 50 µM | TGI (HS 578T breast): > 50 µM | TGI (HT29 colon): > 37.5 µM | TGI (IGROV1 ovarian): > 43.7 µM | TGI (K-562 leukemia): > 50 µM | TGI (KM12 colon): > 50 µM | TGI (LOX IMVI melanoma): 16.7 µM | TGI (M14 melanoma): > 50 µM | TGI (MALME-3M melanoma): 24.9 µM | TGI (MCF7 breast): > 36.4 µM | TGI (MDA-MB-231 breast): > 44.1 µM | TGI (MDA-MB-435): > 23.4 µM | TGI (MDA-N): > 50 µM | TGI (MOLT-4 leukemia): > 31.4 µM | TGI (NCI-H226 lung): 26.7 µM | TGI (NCI-H23 lung): > 50 µM | TGI (NCI-H460 lung): > 27.3 µM | TGI (NCI-H522 lung): 23.9 µM | TGI (NCI/ADR-RES ovarian): > 48.2 µM | TGI (OVCAR-3 ovarian): 31.9 µM | TGI (OVCAR-4 ovarian): 12 µM | TGI (OVCAR-5 ovarian): 49 µM | TGI (OVCAR-8 ovarian): > 50 µM | TGI (PC-3 prostate): > 29.9 µM | TGI (RPMI-8226 leukemia): 12.9 µM | TGI (RXF 393 renal): 12.3 µM | TGI (SF-268 CNS): > 50 µM | TGI (SF-295 CNS): > 31.8 µM | TGI (SF-539 CNS): 40.5 µM | TGI (SK-MEL-2 melanoma): 30 µM | TGI (SK-MEL-28 melanoma): > 50 µM | TGI (SK-MEL-5 melanoma): 16.6 µM | TGI (SK-OV-3 ovarian): > 50 µM | TGI (SN12C renal): > 50 µM | TGI (SNB-19 CNS): > 50 µM | TGI (SNB-75 CNS): 27.8 µM | TGI (SR leukemia): > 10.8 µM | TGI (SW-620 colon): > 50 µM | TGI (T-47D breast): 4.1 µM | TGI (TK-10 renal): > 23.4 µM | TGI (U251 CNS): > 50 µM | TGI (UACC-257 melanoma): 27.3 µM | TGI (UACC-62 melanoma): 14.3 µM | TGI (UO-31 renal): 40.6 µM

O=c1[nH][nH]c(=O)n1/N=C/c1ccccc1
TGI (786-0 renal): > 100 µM | TGI (A498 renal): > 100 µM | TGI (A549 NSCLC): > 100 µM | TGI (ACHN renal): > 100 µM | TGI (BT-549 breast): > 100 µM | TGI (CAKI-1 renal): > 100 µM | TGI (CCRF-CEM leukemia): > 100 µM | TGI (COLO 205 colon): > 100 µM | TGI (DU-145 prostate): > 100 µM | TGI (EKVX NSCLC): > 100 µM | TGI (HCT-116 colon): > 100 µM | TGI (HCT-15 colon): > 100 µM | TGI (HL-60(TB) leukemia): > 100 µM | TGI (HOP-62 NSCLC): > 100 µM | TGI (HOP-92 NSCLC): > 100 µM | TGI (HS 578T breast): > 100 µM | TGI (HT29 colon): > 100 µM | TGI (IGROV1 ovarian): > 100 µM | TGI (K-562 leukemia): > 100 µM | TGI (KM12 colon): > 100 µM | TGI (LOX IMVI melanoma): > 100 µM | TGI (M14 melanoma): > 100 µM | TGI (MCF7 breast): > 100 µM | TGI (MDA-MB-231 breast): > 100 µM | TGI (MDA-MB-435): > 100 µM | TGI (MDA-N): > 100 µM | TGI (MOLT-4 leukemia): > 100 µM | TGI (NCI-H226 lung): > 100 µM | TGI (NCI-H23 lung): > 100 µM | TGI (NCI-H460 lung): > 100 µM | TGI (NCI/ADR-RES ovarian): > 100 µM | TGI (OVCAR-3 ovarian): > 100 µM | TGI (OVCAR-5 ovarian): > 100 µM | TGI (OVCAR-8 ovarian): > 100 µM | TGI (PC-3 prostate): > 100 µM | TGI (RPMI-8226 leukemia): > 100 µM | TGI (SF-268 CNS): > 100 µM | TGI (SF-295 CNS): > 100 µM | TGI (SF-539 CNS): > 100 µM | TGI (SK-MEL-2 melanoma): > 100 µM | TGI (SK-MEL-28 melanoma): > 100 µM | TGI (SK-MEL-5 melanoma): > 100 µM | TGI (SK-OV-3 ovarian): > 100 µM | TGI (SN12C renal): > 100 µM | TGI (SNB-19 CNS): > 100 µM | TGI (SNB-75 CNS): > 100 µM | TGI (SR leukemia): > 100 µM | TGI (SW-620 colon): > 100 µM | TGI (T-47D breast): > 100 µM | TGI (TK-10 renal): > 100 µM | TGI (U251 CNS): > 100 µM | TGI (UACC-257 melanoma): > 100 µM | TGI (UACC-62 melanoma): > 100 µM | TGI (UO-31 renal): > 100 µM
